# Experimental data from US20230365563A1, “QUINAZOLINE COMPOUND AND APPLICATION THEREOF” (SHANGHAI PHARMACEUTICALS HOLDING CO., LTD., priority 2020, published 2023).
# Where a name gives a salt, the structure may show the parent alone.
# Target: T1, KRAS-G12D and SOS1 (Homo sapiens, UniProt P01116, G12D)
# T1 construct: purchased
# Test: Inhibition of KRAS-G12D/SOS1 binding (Cisbio binding kit, 665/615 ratio), Effect Embodiment A
# Conditions: read-out: GTP-KRAS-G12D:SOS1 IC50
# Experimental: Similarly, the first dilution point of the compound to be tested was its storage solution, and the solution was 3-fold diluted, with 11+0 points of dilution. Echo was used to transfer 0.2 μL gradient diluted solution of the compounds into a 384-well plate, with 2 duplicated wells for each compound, and the final concentration of DMSO was 1%. The solution was centrifuged for 1 min at 1000 rpm/min.
# IC50 of the compounds was fitted by Graphpad Prism 8 nonlinear regression equation: […]
# The IC50 (half inhibitory concentration) of the compound was obtained by using the following nonlinear fitting formula: […]
# T1 sequence (P01116 1-188 isoform P01116-2 G12D): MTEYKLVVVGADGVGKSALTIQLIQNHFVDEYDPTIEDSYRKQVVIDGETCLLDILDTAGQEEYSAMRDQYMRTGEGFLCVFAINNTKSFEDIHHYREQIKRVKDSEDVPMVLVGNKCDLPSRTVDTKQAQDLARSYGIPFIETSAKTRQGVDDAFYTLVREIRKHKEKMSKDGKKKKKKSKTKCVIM
row,SMILES,IC50 [nM]
1,"CN(C)C1CN(c2nc(N=S3(=O)CCC(N)CC3)c3cc(Cl)c(-c4cc(O)cc5ccccc45)c(F)c3n2)C1 (single isomer, unassigned) [Compound 72d, (4S or R)-4-amino-1-(((S or R)-6-chloro-2-(3-(dimethylamino)azetidin-1-yl)-8-fluoro-7-(3-hydroxynaphthalen-1-yl)quinazolin-4-yl)imino)hexahydro-1-thiopyran 1-oxide]",176000
2,"CN(C)C1CN(c2nc(N3CC4CCC(C3)N4)c3cc(Cl)c(-c4cccc5ccccc45)c(F)c3n2)C1 (single isomer, unassigned) [Compound 42b, -((R or S)-4-((1R,5S)-3,8-diazabicyclo[3.2.1]octan-3-yl)-6-chloro-8-fluoro-7-(naphthalen-1-yl)quinazolin-2-yl)-N,N-dimethylazetidin-3-amine]",6470
3,"CN(C)CCCCOc1nc(N2CC3CCC(C2)N3)c2cc(Cl)c(-c3cc(O)cc4ccccc34)c(F)c2n1 (single isomer, unassigned) [Compound 60b, 4-((R or S)-4-((1R,5S)-3,8-diazabicyclo[3.2.1]octan-3-yl)-6-chloro-2-(4-(dimethylamino)butoxy)-8-fluoroquinazolin-7-yl)naphthalen-2-ol]",72400
4,"CCN(CC)CCCOc1nc(N2CC3CCC(C2)N3)c2cc(Cl)c(-c3cc(O)cc4ccccc34)c(F)c2n1 (single isomer, unassigned) [Compound 53b, 4-((R or S)-4-((1R,5,S)-3,8-diazabicyclo[3.2.1]octan-3-yl)-6-chloro-2-(3-(diethylamino)propoxy)-8-fluoroquinazolin-7-yl)naphthalen-2-ol]",2290
5,"Oc1cc(-c2c(Cl)cc3c(N4CC5CCC(C4)N5)nc(OCCCN4CCC4)nc3c2F)c2ccccc2c1 (single isomer, unassigned) [Compound 59b, 4-((R or S)-2-(3-(azetidin-1-yl)propoxy)-4-((1R,5S)-3,8-diazabicyclo[3.2.1]octan-3-yl)-6-chloro-8-fluoroquinazolin-7-yl)naphthalen-2-ol]",5980
6,"CN1CCC[C@H]1COc1nc(N2CC3CCC(C2)N3)c2cc(Cl)c(-c3cc(O)cc4ccccc34)c(F)c2n1 (single isomer, unassigned) [Compound 39b, (R or S)-4-(4-((1R,5S)-3,8-diazabicyclo[3.2.1]octan-3-yl)-6-chloro-8-fluoro-2-((S)-1-methylpyrrolidin-2-yl)methoxy)quinazolin-7-yl)naphthalen-2-ol]",17700
7,"CN(C)C1CN(c2nc(N3CC4CCC(C3)N4)c3cc(Cl)c(-c4cc(O)cc5cccc(Cl)c45)c(F)c3n2)C1 (single isomer, unassigned) [Compound 65a, 4-((S or R)-4-((1R,5S)-3,8-diazabicyclo[3.2.1]octan-3-yl)-6-chloro-2-(3-(dimethylamino)azetidin-1-yl)-8-fluoroquinazolin-7-yl)-5-chloronaphthalen-2-ol]",44600
8,"CC(=O)NCCN(C)c1nc(N2CC(N(C)C)C2)nc2c(F)c(-c3cc(O)cc4ccccc34)c(Cl)cc12 (single isomer, unassigned) [Compound 84, (S or R)—N-(2-((6-chloro-2-(3-(dimethylamino)azetidin-1-yl)-8-fluoro-7-(3-hydroxynaphthalen-1-yl)quinazolin-4-yl)(methyl)amino)ethyl)acetamide]",3050
9,"CN(C)CCCn1c(=O)nc(N2CC3CCC(C2)N3)c2cc(Cl)c(-c3cc(O)cc4ccccc34)c(F)c21 (single isomer, unassigned) [Compound 74b, 4-((1R,5S)-3,8-diazabicyclo[3.2.1]octan-3-yl)-6-chloro-1-(3-(dimethylamino)propyl)-8-fluoro-7-((R or S)-3-hydroxynaphthalen-1-yl)quinazolin-2(1H)-one]",> 200000
10,"CN(C)C1CN(c2nc(N3CC(N(C)C)C3)c3cc(Cl)c(-c4cc(O)cc5ccccc45)c(F)c3n2)C1 (single isomer, unassigned) [Compound 9b, (S or R)-4-(6-chloro-2,4-bis(3-(dimethylamino)azetidin-1-yl)-8-fluoro-7-yl)naphthalen-2-ol]",> 200000
11,"CN1CCN(c2nc(N3CC4CCC(C3)N4)c3cc(Cl)c(-c4cc(O)cc5ccccc45)c(F)c3n2)CC1 (single isomer, unassigned) [Compound 52b, 4-((R or S)-4-((1R,5S)-3,8-diazabicyclo[3.2.1]octan-3-yl)-6-chloro-8-fluoro-2-(4-methylpiperazin-1-yl)quinazolin-7-yl)naphthalen-2-ol]",73900
12,"CN(C)C1CN(c2nc(N3C[C@H]4CC[C@@H]3CN4)c3cc(Cl)c(-c4cc(O)cc5ccccc45)c(F)c3n2)C1 (single isomer, unassigned) [Compound 1b, (S or R)-4-(4-((1R,4R)-2,5-diazabicyclo[2.2.2]octan-2-yl)-6-chloro-2-(3-(dimethylamino)azetidin-1-yl)-8-fluoroquinazolin-7-yl)naphthalen-2-ol]",31900
13,"CN(CCN)c1nc(N2CC(N(C)C)C2)nc2c(F)c(-c3cc(O)cc4ccccc34)c(Cl)cc12 (single isomer, unassigned) [Compound 15a, (R or S)-4-(4((2-aminoethyl) (methyl)-amino)-6-chloro-2-(3-(dimethylamino)azetidin-1-yl)-8-fluoroquinazolin-7-yl)naphthalen-2-ol]",1350

# The next compounds have a lower IC50 than those just listed; values first:
row,IC50 [nM],SMILES
1,1280,"CN(C)C1CN(c2nc(C3CNC3)c3cc(Cl)c(-c4cc(O)cc5ccccc45)c(F)c3n2)C1 (single isomer, unassigned) [Compound 21a, (S or R)-4-(4-(azetidin-3-yl)-6-chloro-2-(3-(dimethylamino)azetidin-1-yl)-8-fluoroquinazolin-7-yl)naphthalen-2-ol bistrifluoroacetate]"
2,1040,"CN(C)C1CN(c2nc(N3CC(C(=N)N)C3)c3cc(Cl)c(-c4cc(O)cc5ccccc45)c(F)c3n2)C1 [Compound 77, (S)-1-(6-chloro-2-(3-(dimethylamino)azetidin-1-yl)-8-fluoro-7-(3-hydroxynaphthalen-1-yl)quinazolin-4-yl)azetidine-3-carboximidamide]"
3,842,"Oc1cc(-c2ncc3c(N4C[C@H]5CC[C@@H](C4)N5)nc(Oc4ccncc4)nc3c2F)c2ccccc2c1 [Compound 130, 4-(4-((1R,5S)-3,8-diazabicyclo[3.2.1]octan-3-yl)-8-fluoro-2-(pyridinyl-4-oxy)pyridyl[4,3-d]pyrimidin-7-yl)naphthalen-2-ol hydrochloride]"
4,673,"N=[S+]1([O-])CC2CCC(C1)N2CCCOc1nc(N2CC3CCC(C2)N3)c2cc(Cl)c(-c3cc(O)cc4ccccc34)c(F)c2n1 (single isomer, unassigned) [Compound 213b, (1R,3R or 3S,5S)-8-(3-((4-((1R,5S)-3,8-diazabicyclo[3.2.1]octan-3-yl)-6-chloro-8-fluoro-7-(3-hydroxynaphthalen-1-yl)quinazolin-2-yl)oxy)propyl)-3-imino-3λ^6-thia-8-azabicyclo[3.2.1]octane 3-oxide formate]"
5,621,"CN1CCC[C@H]1COc1nc(N2CC3CCC(C2)N3C(=O)CN)c2cc(Cl)c(-c3cc(O)cc4ccccc34)c(F)c2n1 (single isomer, unassigned) [Compound 156, 2-Amino-1-((1R,5S)-3-((S or R)-6-chloro-8-fluoro-7-(3-hydroxynaphthalen-1-yl)-2-((S)-1-methylpyrrolidin-2-yl)methoxy)quinazin-4-yl)-3,8-diazacyclo[3.2.1]octan-8-yl)ethan-1-one dihydrochloride]"
6,316,"CN1CCC[C@H]1COc1nc(N2CCN(C(=O)CCN)[C@@H](CC#N)C2)c2cc(Cl)c(-c3cc(O)cc4ccccc34)c(F)c2n1 (single isomer, unassigned) [Compound 157, 2-((S)-1-(3-aminopropionyl)-4-((S or R)-6-chloro-8-fluoro-7-(3-hydroxynaphthalen-1-yl)-2-((S)-1-methylpyrrolidine-2-yl)methoxy)quinazolin-4-yl)-piperazin-2-yl)acetonitrile ditrifluoroacetate]"
7,250,"Oc1cc(-c2c(Cl)cc3c(N4CC5CCC(C4)N5)nc(OCC(CN4C5CCC4COC5)C(F)(F)F)nc3c2F)c2ccccc2c1 (single isomer, unassigned) [Compound 218b, 4-((7S or 7R)-2-((2R or 2S)-2-((3-oxa-8-azabicyclo[3.2.1]octan-8-yl)methyl)-3,3,3-trifluoropropoxy)-4-((1R,5S)-3,8-diazabicyclo[3.2.1]octan-3-yl)-6-chloro-8-fluoroquinazolin-7-yl)naphthalen-2-ol formate]"
8,204,"CN(C)CCCCc1nc(N2CC3CCC(C2)N3)c2cc(Cl)c(-c3cc(O)cc4ccccc34)c(F)c2n1 (single isomer, unassigned) [Compound 154a, 4-((S or R)-4-((1R,5S)-3,8-diazabicyclo[3.2.1]octan-3-yl)-6-chloro-2-(4-(dimethylamino)butyl)-8-fluoroquinazolin-7-yl)naphthalen-2-ol dihydrochloride]"
9,191,"C[C@@H](COc1nc(N2CC3CCC(C2)N3)c2cc(Cl)c(-c3cc(O)cc4ccccc34)c(F)c2n1)CN1CC(C)(C)OC(C)(C)C1 (single isomer, unassigned) [Compound 217, 4-((S or R)-4-((1R,5S)-3,8-diazabicyclo[3.2.1]octan-3-yl)-6-chloro-8-fluoro-2-((R)-2-methyl-3-(2,2,6,6-tetramethylmorpholinyl)propoxy)quinazolin-7-yl)naphthalen-2-ol formate]"
10,108,"C[C@H]1CCCN1CCCOc1nc(N2CC3CCC(C2)N3)c2cc(Cl)c(-c3cc(O)cc4ccccc34)c(F)c2n1 (single isomer, unassigned) [Compound 108b, 4-((S or R)-4-((1R,5S)-3,8-diazabicyclo[3.2.1]octan-3-yl)-6-chloro-8-fluoro-2-(3-((S)-2-methylpyrrolidin-1-yl)propoxy)quinazolin-7-yl)naphthalen-2-ol dihydrochloride]"
